Experimental data reported in US5792457A, “Antibody recognizing endothelial cell ligand for leukocyte CR3” (priority 1995, dated 1998).

What was measured:
[1] = test system: lactate metabolism during meningeal inflammation; assay: Rabbit model for meningitis: lactate in CSF; format: in vivo, New Zealand white rabbits; details: 6 hours after challenge
Procedure: (§1) The rabbit model was performed according to an established protocol. Specific pathogen free, New Zealand white rabbits (2 kg; Hare Marland, Nutley, N.J.) were anesthetized with valium (2.5 mg/kg, subcutaneously, Hoffman-LaRoche, Nutley, N.J.), ketamine (35 mg/kg, intra-muscularly, Aveco, Fort Dodge, Iowa) and xylazine (5 mg/kg, intramuscularly, Miles Laboratories, Shawnee, Kans.) and a helmet of dental acrylic was affixed to the calvarium. Twenty four hours later, the rabbits were anesthetized with ethyl carbamate (1.75 g/kg; Aldrich Chemical Co., Milwaukee, Wis.) and pentobarbital (15 mg/kg; Abbott Laboratories, Abbott Park, Ill.) and placed in a stereotaxic frame. A spinal needle was introduced into the cisterna magna and 300 μl of CSF was withdrawn. The animals were challenged intracisternally with 10^8 heat killed, unencapsulated pneumococcus strain R6 introduced in 200 μl of saline (time 0). One hour later, animals were treated with peptides dissolved in 1 ml of saline by intravenous injection into the right marginal ear vein. The concentration of FHA was 0.1 μM and that of the FHA Ia, Factor X II, and scrambled FHA II peptides was 10 μM. For the acetyl-FHA II, acetyl/amide-FHA II, dimer of FHA II and trimer of FHA II peptides, the concentration was 10^-3 μM. The concentration of FHA II is given in the results section. Samples of CSF were withdrawn at hourly intervals after pneumococcal inoculation and leukocyte density was measured using a cell counter (Coulter Electronics Inc., Hialeah, Fla.). CSF samples were centrifuged at 10,000×g for 5 minutes and the supernatant was stored at -70° C. until assayed for protein concentration using the bicinchoninic acid method (ECA Kit, Pierce Chemical Co., Rockford, Ill.) and for lactate concentration (Lactate Detection Kit, Sigma, St. Louis, Mo.). Statistically significant differences between treatments were determined by a one way analysis of variance test.
(§2) Loss of barrier function of the cerebral capillary endothelium during inflammation is reflected by an influx of serum proteins into the CSF. […] To examine if the peptides were able to ameliorate these measures of cerebral injury, CSF protein and lactate concentrations were measured hourly in peptide-treated and control animals (Table 10).
(§3) Mean values for CSF lactate and protein at time 0 were 18.6±5.8 and 0.8±0.2 respectively. Ten control animals received phosphate-buffered saline. The concentration of FHA II intravenously injected one hour after challenge with pneumococci was 10 μM. Values represent mean±standarddeviation of concentrations in CSF at 6 hours after pneumococcal challenge (n≥4 for peptide treated animals; n=4 for FHA). *Statistically significant difference as compared to control at p<0.02 (Mann-Whitney test).
(§4) Again, mean values for CSF lactate and protein at time 0 were 18.6±5.8 and 0.8±0.2, respectively. Ten control animals received phosphate-buffered saline. The concentrations of FHA II intravenously injected was 10^-3 μM. Values represent mean±standard deviation of concentrations in CSF at 6 hours after pneumococcal administration (n≥4 per group).

[2] = test system: blood brain barrier permeability (CSF protein); assay: Rabbit model for meningitis: protein in CSF (blood brain barrier permeability); format: in vivo, New Zealand white rabbits; details: for protein influx into CSF and generation of lactate (in words): 10 μM peptides (Table 10); for Protein in CSF: 6 hours after challenge; for Total protein in CSF, 6 hours: 6 hours after inoculation (Example 11, 1 μM peptide; FHA 0.1 μM); for Total protein in CSF, 7 hours: 7 hours after inoculation (Example 11, 1 μM peptide; FHA 0.1 μM)
Procedure: as §1, §2, §3, §4
The anti-inflammatory effects of the administered peptides were assessed in the rabbit model for meningitis by the procedures described in Example 10. The animals received 1 ml of 1 uM peptide intravenously. In a slight departure from the protocol described in Example 10, samples of blood were drawn from the left marginal ear vein 30 minutes after the administration of the peptides to determine peripheral leukocyte concentrations.
Values represent mean ±standard deviation of at least four animals per group. ^1 Time after intracisternal inoculation of pneumococci. *Statistically significant difference as compared to control at p<0.02 (Mann-Whitney test).

Row | Substance | Lactate in CSF ([1]; peptides 10 μM, FHA 0.1 μM) [mg/100 ml] | protein influx into CSF and generation of lactate (in words) [2] | Protein in CSF ([2]; peptides 10 μM, FHA 0.1 μM) [mg/ml CSF] | Total protein in CSF, 6 hours [2] [mg/mL] | Total protein in CSF, 7 hours [2] [mg/mL] | other results
1 | GYDTKQEDG [Factor X II] | 37.6 ± 6.9 | no significant reduction | 1.6 ± 0.7 | – | – | –
2 | Ac-ETKEVDG-NH2 [Acetyl/Amide-FHA II] | 24.3 ± 3.2 | significantly reduced protein influx into the CSF and generation of lactate | 1.2 ± 0.6 | – | – | –
3 | LGYQAK (UniProt P12255 1979-1984, looked up, fragment) [FHA Ia] | 36.0 ± 6.7 | no significant reduction | 1.8 ± 0.4 | – | – | –
4 | DEETVK [scrambled FHA II, reference compound] | 40.7 ± 5.8 | – | 1.9 ± 0.3 | – | – | –
5 | ETKEVDG [FHA II] | 25.5 ± 4.1 | significantly reduced protein influx into the CSF and generation of lactate | 1.4 ± 0.6 | – | – | Lactate in CSF ([1]; 10^-3 μM): 35.3 ± 6.7 mg/100 ml; protein and lactate in CSF (in words) ([2]; 10^-3 μM): ineffective at this dose; Protein in CSF ([2]; 10^-3 μM): 2.45 ± 0.22 mg/ml CSF
6 | GTLLLRNDALTENGTVTISA [FHA Cd] | – | – | – | 1.71 ± 0.19 | 2.03 ± 0.57 | –
7 | RGDPHQGVLAQGDIIMDAKG [FHA Ca] | – | – | – | 1.18 ± 0.39 | 1.69 ± 0.41 | influx of serum protein into CSF (in words) ([2]; 1 μM, entire observation period): reduced the influx of serum protein significantly during the entire observation period
8 | native FHA: Filamentous hemagglutinin, 220kD surface associated protein of Bordetella pertussis (List Biologicals) | 25.0 ± 5.3 | significantly protective for protein influx and lactate generation | 1.3 ± 0.3 | 1.70 ± 0.33 | 1.86 ± 0.76 | –
9 | RADPHQGVLAQGDIIMDAKG [FHA Cb] | – | – | – | 1.91 ± 0.24 | 2.28 ± 0.28 | –
10 | AADPHQGVLAQGDIIMDAKG [FHA Cc] | – | – | – | 1.36 ± 0.16 | 1.90 ± 0.22 | –
